# Results reported in patent US20250034216A1, “STEREOSELECTIVE COVALENT LIGANDS FOR ONCOGENIC AND IMMUNOLOGICAL PROTEINS” (The Scripps Research Institute, priority 2021, published 2025).
# Columns and labels:
# Experiment in all cases: IA-DTB cysteine engagement
# Assay type in all cases: binding
# [1] = target: T1, BCKDK_C111 (Homo sapiens, UniProt O14874); settings: 22Rv1 cells, 20 μM probe, 1 h, relative to DMSO
# T1 construct: endogenous in cells; host or cells: 22Rv1
# Method in brief: (§1)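 Competitive chemoproteomics: residual cysteine reactivity toward IA-DTB in lysates from probe-treated cells was quantified by TMT reporter ions relative to DMSO-treated controls. Replicates sharing cell line, probe, concentration and duration were averaged.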
# [2] = target: T2, CENPC_C291 (Homo sapiens, UniProt Q03188); settings: 22Rv1 cells, 20 μM probe, 1 h, relative to DMSO
# T2 construct: endogenous in cells; host or cells: 22Rv1
# Method in brief: as §1
# [3] = target: T3, CNOT4_C175 (Homo sapiens, UniProt O95628); settings: 22Rv1 cells, 20 μM probe, 1 h, relative to DMSO
# T3 construct: endogenous in cells; host or cells: 22Rv1
# T3 sequence (O95628 1-575): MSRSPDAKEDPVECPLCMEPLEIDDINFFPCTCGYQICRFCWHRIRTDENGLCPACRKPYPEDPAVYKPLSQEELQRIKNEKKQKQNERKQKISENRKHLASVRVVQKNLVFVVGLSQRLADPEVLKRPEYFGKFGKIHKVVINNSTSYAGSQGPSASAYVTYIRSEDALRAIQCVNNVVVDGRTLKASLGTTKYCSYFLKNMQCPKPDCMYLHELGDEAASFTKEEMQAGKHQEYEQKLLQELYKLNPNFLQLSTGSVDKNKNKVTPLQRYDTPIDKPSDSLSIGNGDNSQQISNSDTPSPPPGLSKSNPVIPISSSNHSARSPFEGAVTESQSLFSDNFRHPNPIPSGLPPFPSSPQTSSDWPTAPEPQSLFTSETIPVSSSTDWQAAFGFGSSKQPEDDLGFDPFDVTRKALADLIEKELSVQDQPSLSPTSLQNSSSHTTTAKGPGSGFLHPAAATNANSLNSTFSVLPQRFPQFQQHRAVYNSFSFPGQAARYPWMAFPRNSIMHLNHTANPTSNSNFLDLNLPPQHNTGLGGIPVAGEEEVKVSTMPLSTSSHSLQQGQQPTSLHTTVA
# Method in brief: as §1
# [4] = target: T4, ABHD16A_C205 (Homo sapiens, UniProt O95870); settings: 22Rv1 cells, relative to DMSO; for % engagement ABHD16A_C205: 20 μM probe, 1 h; for % engagement ABHD16A_205: 5 μM probe, 1 h (FIG. 5B)
# T4 construct: endogenous in cells; host or cells: 22Rv1
# T4 sequence (O95870 1-558): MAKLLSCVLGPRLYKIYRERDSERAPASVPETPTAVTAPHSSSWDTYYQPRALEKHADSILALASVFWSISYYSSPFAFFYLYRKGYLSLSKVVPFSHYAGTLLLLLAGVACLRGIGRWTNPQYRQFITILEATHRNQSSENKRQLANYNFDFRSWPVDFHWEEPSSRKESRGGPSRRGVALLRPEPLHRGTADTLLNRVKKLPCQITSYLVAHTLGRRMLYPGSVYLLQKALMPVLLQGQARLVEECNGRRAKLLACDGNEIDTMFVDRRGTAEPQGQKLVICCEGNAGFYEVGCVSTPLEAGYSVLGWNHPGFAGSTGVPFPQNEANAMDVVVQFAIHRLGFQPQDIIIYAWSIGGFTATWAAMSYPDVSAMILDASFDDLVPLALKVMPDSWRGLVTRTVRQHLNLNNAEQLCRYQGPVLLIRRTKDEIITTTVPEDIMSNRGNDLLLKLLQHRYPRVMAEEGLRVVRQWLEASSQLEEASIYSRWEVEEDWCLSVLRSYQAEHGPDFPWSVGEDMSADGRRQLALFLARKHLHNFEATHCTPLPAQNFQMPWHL
# Method in brief: as §1
# T2 sequence (Q03188 whole entry): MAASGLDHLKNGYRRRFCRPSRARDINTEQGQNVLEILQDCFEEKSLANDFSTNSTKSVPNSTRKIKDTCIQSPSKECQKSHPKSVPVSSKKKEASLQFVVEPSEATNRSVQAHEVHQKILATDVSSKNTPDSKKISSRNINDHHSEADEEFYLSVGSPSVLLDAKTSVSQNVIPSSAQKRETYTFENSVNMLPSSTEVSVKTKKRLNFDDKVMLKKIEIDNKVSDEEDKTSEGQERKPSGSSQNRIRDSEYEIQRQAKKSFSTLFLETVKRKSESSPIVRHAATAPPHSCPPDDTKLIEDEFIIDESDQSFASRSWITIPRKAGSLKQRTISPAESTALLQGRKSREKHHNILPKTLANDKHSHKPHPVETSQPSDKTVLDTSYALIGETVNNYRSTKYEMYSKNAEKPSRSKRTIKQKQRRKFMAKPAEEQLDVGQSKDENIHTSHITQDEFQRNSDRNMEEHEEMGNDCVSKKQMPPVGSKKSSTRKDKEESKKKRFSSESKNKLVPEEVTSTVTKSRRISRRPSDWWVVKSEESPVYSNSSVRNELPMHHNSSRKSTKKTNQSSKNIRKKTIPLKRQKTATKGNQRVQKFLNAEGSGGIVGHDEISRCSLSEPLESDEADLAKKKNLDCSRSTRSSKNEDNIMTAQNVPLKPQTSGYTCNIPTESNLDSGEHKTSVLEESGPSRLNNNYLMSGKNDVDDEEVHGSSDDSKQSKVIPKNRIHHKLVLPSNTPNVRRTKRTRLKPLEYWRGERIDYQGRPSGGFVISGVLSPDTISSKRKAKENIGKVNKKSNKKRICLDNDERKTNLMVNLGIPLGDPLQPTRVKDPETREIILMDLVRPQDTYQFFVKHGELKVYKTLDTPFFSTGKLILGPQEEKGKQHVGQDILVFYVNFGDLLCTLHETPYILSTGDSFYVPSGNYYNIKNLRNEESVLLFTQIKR
SMILES,% engagement BCKDK_C111 [1] [%],% engagement CENPC_C291 [2] [%],% engagement CNOT4_C175 [3] [%],% engagement ABHD16A_C205 [4] [%],% engagement ABHD16A_205 [4] [%]
"C=CC(=O)N1C[C@@H](c2ccc(Br)cc2)[C@H]1C(=O)Nc1cccc2cccnc12 [MY-1A, (2S,3R)-1-acryloyl-3-(4-bromophenyl)-N-(quinolin-8-yl)azetidine-2-carboxamide]",17.25,−1.5,0,67.75,–
"C=CC(=O)N1C[C@H](c2ccc(Br)cc2)[C@@H]1C(=O)Nc1cccc2cccnc12 [MY-1B, (2R,3S)-1-acryloyl-3-(4-bromophenyl)-N-(quinolin-8-yl)azetidine-2-carboxamide]",14.5,7,−15,80.25,83.67
"C=CC(=O)N1C[C@H](c2ccc(Br)cc2)[C@H]1C(=O)Nc1cccc2cccnc12 [MY-3A, (2S,3S)-1-acryloyl-3-(4-bromophenyl)-N-(quinolin-8-yl)azetidine-2-carboxamide]",19.5,28,76.5,73.25,–
"C=CC(=O)N1C[C@H](c2ccc(Br)cc2)[C@H]1C(=O)Nc1cccc2cccnc12 [MY-3B, (2S,3S)-1-acryloyl-3-(4-bromophenyl)-N-(quinolin-8-yl)azetidine-2-carboxamide]",76.75,82.5,76,77.25,–
"CC#CC(=O)N1C[C@H](c2ccc(Br)cc2)[C@@H]1C(=O)Nc1cccc2cccnc12 [MY-45B, (2R,3S)-3-(4-bromophenyl)-1-(but-2-ynoyl)-N-(quinolin-8-yl)azetidine-2-carboxamide]",–,–,–,–,62.50
